Columns and labels:
[1] = pKa (pH of midpoint of buffering range) of the product at 20° C.
Source text: (§2) In this application, pKa is used to represent the pH of the midpoint of the buffering range of the particular composition.

BALB/C 3T3 = test: Effect of buffers on growth of 3T3 cells; format: cell-based, mouse; conditions: for Minimum Cell Population: Control at 70 hrs, HEPES at 50 hrs, Ex 3 at 22 hrs
Source text: (§1) The control was not so modified. […] The medium was changed every other day.

SV-NIL cells = test: Effect of buffers on growth of SV-NIL cells; format: cell-based, hamster; conditions: for Minimum Cell Population: Control at 16 hrs, HEPES at 24 hrs, Ex 3 at 26 hrs
Source text: as §1

NIL B cells = test: Effect of buffers on growth of NIL B cells; format: cell-based, hamster; conditions: for Minimum Cell Population: Control at 16 hrs, HEPES at 24 hrs, Ex 3 at 24 hrs
Source text: as §1

[2] = test system: NIL B, SV-NIL and BALB/C 3T3 cells; test: Effectiveness as cell and tissue culture buffers, overall comparison on the cell lines tested; conditions: for effectiveness as buffer in promotion of cell growth, compared with HEPES / effectiveness as buffer in promotion of cell growth, compared with NaHCO3:CO2 system (control): selected media, cells tested
Procedure: The cell lines used in the tests were NIL B, a hamster fibroblast line; SV-NIL, an SV40-virus transformed line derived from NIL B; and BALB/C 3T3, a mouse embryo tissue. The cells were seeded into T-flasks (screw-capped polystyrene flasks) with a 25 cm^2 area. On the control flask (CO2 atmosphere), the cap was kept loose to allow gas circulation while the caps on the experimental culture flasks were screwed on tightly. The medium used in these tests was Eagle's MEM 4X (see pages 108-112 of Paul, Cell and Tissue Culture, 5th Edition, 1975), in an Earle's salt solution (page 95 of same text) modified to contain 2.2 g/l of bicarbonate for the experimental buffers. The control was not so modified. The control flask was incubated at 37° C. in an atmosphere of 5% CO2 in air whereas the other flasks were incubated at 37° C. in an air atmosphere. The medium was changed every other day.
At appointed times, triplicate flasks were harvested using trypsin, and the approximate cell population was determined using a Coulter electronic particle counter.

[3] = Solubility of double zwitterion on acidification; format: physicochemical; conditions: aqueous reaction solution acidified to pH 1.5 with HCl

Source text for physchem: as §2

Compound | pKa [1] | Time of minimum cell population (BALB/C 3T3) [h] | Number of Cells per cm^2 (BALB/C 3T3; 0 hrs) [cells per cm^2] | Number of Cells per cm^2 (BALB/C 3T3; 12 hrs) [cells per cm^2] | Number of Cells per cm^2 (BALB/C 3T3; 24 hrs) [cells per cm^2] | Number of Cells per cm^2 (BALB/C 3T3; 36 hrs) [cells per cm^2] | Number of Cells per cm^2 (BALB/C 3T3; 48 hrs) [cells per cm^2] | Number of Cells per cm^2 (BALB/C 3T3; 60 hrs) [cells per cm^2] | Number of Cells per cm^2 (BALB/C 3T3; 72 hrs) [cells per cm^2] | Number of Cells per cm^2 (BALB/C 3T3; 84 hrs) [cells per cm^2] | Number of Cells per cm^2 (BALB/C 3T3; 88 hrs) [cells per cm^2] | Minimum Cell Population (BALB/C 3T3) | Time of minimum cell population (SV-NIL cells) [h] | Number of Cells per cm^2 (SV-NIL cells; 0 hrs) [cells per cm^2] | Number of Cells per cm^2 (SV-NIL cells; 12 hrs) [cells per cm^2] | Number of Cells per cm^2 (SV-NIL cells; 24 hrs) [cells per cm^2] | Number of Cells per cm^2 (SV-NIL cells; 36 hrs) [cells per cm^2] | Number of Cells per cm^2 (SV-NIL cells; 48 hrs) [cells per cm^2] | Number of Cells per cm^2 (SV-NIL cells; 60 hrs) [cells per cm^2] | Number of Cells per cm^2 (SV-NIL cells; 72 hrs) [cells per cm^2] | further results
O=S(=O)(O)CC(O)CN(CCO)CCO (stereo not drawn) [Example 1, 3-[N-(bis-hydroxyethyl)-amino]-2-hydroxypropyl sulfonic acid] | 7.6 |  |  |  |  |  |  |  |  |  |  |  |  |  |  |  |  |  |  |  | 
O=S(=O)(O)CC(O)CNC(CO)(CO)CO (stereo not drawn) [Example 2, 3-[N-(tris-hydroxymethyl)methylamino]-2-hydroxypropane sulfonic acid] |  |  |  |  |  |  |  |  |  |  |  |  |  |  |  |  |  |  |  |  | pKa (physchem): 7.7
O=S(=O)(O)CC(O)CN1CCN(CCO)CC1 (stereo not drawn) [Example 3, N-hydroxyethyl piperazine-N'-2 hydroxypropyl sulfonic acid] |  | 22 | 1000 | 520 | 280 | 310 | 330 | 360 | 450 | 805 | 1015 | about 280 cells per cm^2 | 26 | 1000 | 470 | 220 | 290 | 440 | 680 | 1000 | Number of Cells per cm^2 (SV-NIL cells; 84 hrs): 1120 cells per cm^2; Number of Cells per cm^2 (SV-NIL cells; 90 hrs): 1200 cells per cm^2; Minimum Cell Population (SV-NIL cells): about 200 cells per cm^2; Time of minimum cell population (NIL B cells): 24 h; Number of Cells per cm^2 (NIL B cells; 0 hrs): 1000 cells per cm^2; Number of Cells per cm^2 (NIL B cells; 90-92 hrs): 9400 cells per cm^2; Number of Cells per cm^2 (NIL B cells; 12 hrs): 740 cells per cm^2; Number of Cells per cm^2 (NIL B cells; 24 hrs): 550 cells per cm^2; Number of Cells per cm^2 (NIL B cells; 36 hrs): 900 cells per cm^2; Number of Cells per cm^2 (NIL B cells; 48 hrs): 1100 cells per cm^2; Number of Cells per cm^2 (NIL B cells; 60 hrs): 2600 cells per cm^2; Number of Cells per cm^2 (NIL B cells; 72 hrs): 4300 cells per cm^2; Number of Cells per cm^2 (NIL B cells; 84 hrs): 6600 cells per cm^2; Minimum Cell Population (NIL B cells): about 550 cells per cm^2; effectiveness as buffer in promotion of cell growth, compared with HEPES [2]: as good as, if not better than, the control and the known buffer HEPES; effectiveness as buffer in promotion of cell growth, compared with NaHCO3:CO2 system (control) [2]: as good as, if not better than, the control; cell growth utilizing the product as a buffer ([2]; three cell types, average values): general improvement in cell growth
O=S(=O)(O)CC(O)CN1CCN(CC(O)CS(=O)(=O)O)CC1 (stereo not drawn) [Example 4, Piperazine-N,N'-2-hydroxypropyl sulfonic acid (dihydrate)] | 7.85 |  |  |  |  |  |  |  |  |  |  |  |  |  |  |  |  |  |  |  | solubility [3]: very insoluble
O=S(=O)(O)CC(O)CN1CCOCC1 (stereo not drawn) [Example 6, 3-(N-morpholino)-2-hydroxypropyl sulfonic acid] |  |  |  |  |  |  |  |  |  |  |  |  |  |  |  |  |  |  |  |  | effectiveness as buffer in promotion of cell growth, compared with HEPES [2]: about as good as HEPES; effectiveness as buffer in promotion of cell growth, compared with NaHCO3:CO2 system (control) [2]: not as good as the NaHCO3 :CO2 system
O=S(=O)(O)CCN1CCN(CCO)CC1 [HEPES, 4-(2-hydroxyethyl)-1-piperazine-ethanesulfonic acids, reference compound] |  | 50 | 1000 | 640 | 400 | 300 | 230 | 280 | 380 | 760 | 1010 | about 220 cells per cm^2 | 24 | 1000 | 440 | 200 | 230 | 260 | 380 | 580 | Number of Cells per cm^2 (SV-NIL cells; 84 hrs): 940 cells per cm^2; Number of Cells per cm^2 (SV-NIL cells; 90 hrs): 1040 cells per cm^2; Minimum Cell Population (SV-NIL cells): about 200 cells per cm^2; Time of minimum cell population (NIL B cells): 24 h; Number of Cells per cm^2 (NIL B cells; 0 hrs): 1000 cells per cm^2; Number of Cells per cm^2 (NIL B cells; 90-92 hrs): 6700 cells per cm^2; Number of Cells per cm^2 (NIL B cells; 12 hrs): 680 cells per cm^2; Number of Cells per cm^2 (NIL B cells; 24 hrs): 460 cells per cm^2; Number of Cells per cm^2 (NIL B cells; 36 hrs): 700 cells per cm^2; Number of Cells per cm^2 (NIL B cells; 48 hrs): 1010 cells per cm^2; Number of Cells per cm^2 (NIL B cells; 60 hrs): 1160 cells per cm^2; Number of Cells per cm^2 (NIL B cells; 72 hrs): 3000 cells per cm^2; Number of Cells per cm^2 (NIL B cells; 84 hrs): 4800 cells per cm^2; Minimum Cell Population (NIL B cells): about 460 cells per cm^2

From patent US4169950A, “Amino-hydroxy-alkyl sulfonic acid zwitterions” (priority 1977, dated 1979)
